Laboratory results taken from patent US8426447B2, “Spiro-tricyclic ring compounds as beta-secretase modulators and methods of use” (Amgen Inc., priority 2008, dated 2013).
Where “and” joins values, the source holds several entries; their conditions need not be identical. Identical values can stand only once.

Experiments:
BACE1 [1] = biological target: T1, BACE1 (Homo sapiens, UniProt P56817); assay: In Vitro Enzymatic BACE FRET (Fluorescence Resonance Energy Transfer) Assay; assay type: biochemical
T1 sequence (P56817 46-501, species assumed): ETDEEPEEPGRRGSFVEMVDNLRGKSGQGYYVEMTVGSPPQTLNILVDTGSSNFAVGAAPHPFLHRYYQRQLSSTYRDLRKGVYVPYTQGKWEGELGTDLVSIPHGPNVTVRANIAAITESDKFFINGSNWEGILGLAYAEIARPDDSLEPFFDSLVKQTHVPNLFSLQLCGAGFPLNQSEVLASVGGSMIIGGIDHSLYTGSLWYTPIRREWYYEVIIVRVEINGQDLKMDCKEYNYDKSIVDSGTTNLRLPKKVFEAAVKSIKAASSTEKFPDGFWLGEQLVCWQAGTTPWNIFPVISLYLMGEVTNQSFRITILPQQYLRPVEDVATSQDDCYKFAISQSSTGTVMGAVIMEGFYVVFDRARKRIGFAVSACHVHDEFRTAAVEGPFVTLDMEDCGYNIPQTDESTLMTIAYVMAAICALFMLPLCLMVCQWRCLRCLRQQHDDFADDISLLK
Outline: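 Buffer 0.05 M acetate pH 4.2 with 10% DMSO final and 100 uM genapol; reaction started with 50 nM FRET peptide substrate (fluorophore/quencher flanking BACE cleavage site), incubated one hour. Stopped with Tris buffer raising pH to neutrality, then fluorescence read.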

BACE1 [2] = biological target: T1, BACE1; assay: In Vitro BACE Cell-based Assay (HEK cell assay): Aβ40 in conditioned medium of cells stably expressing Amyloid Precursor Protein, sandwich ELISA
Outline: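 Read-out is time-resolved fluorescence of Aβ40 in supernatant, captured by pAb40 and detected with biotinylated 6E10 plus Streptavidin-Europium. Cells stably expressing APP received compounds for 24 h over 10 concentrations starting at 100 μM or 10 μM, final DMSO 0.1%.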

[3] = Table II, read-out: BACE1 FRET assay
[4] = Table II, Aβ40, 24 h incubation, read-out: HEK cell assay
[5] = Table III, IC50's in uM ranges, read-out: BACE1 FRET assay
[6] = Table III, IC50's in uM ranges, read-out: HEK cell assay

| SMILES | IC50 (BACE1 [1]; [5]) | IC50 (BACE1 [2]; [6]) | other results |
| --- | --- | --- | --- |
| CN(C)CC#Cc1ccc2c(c1)[C@@]1(COC(N)=N1)c1cc(OCC(C)(C)C)ccc1O2 [Example 89, (4S)-2′-(3-(dimethylamino)-1-propyn-1-yl)-7′-(2,2-dimethylpropoxy)spiro[1,3-oxazole-4,9′-xanthen]-2-amine] | – | – | IC50 (BACE1 [1]; [3]): 0.1 to 1 µM; IC50 (BACE1 [2]; [4]): 0.1 to 1 µM |
| CC(C)(C)COc1ccc2c(c1)[C@@]1(COC(N)=N1)c1cc(-c3cc(Cl)ccc3F)cnc1O2 [Example 90, (5S)-3-(5-chloro-2-fluorophenyl)-7-(2,2-dimethylpropoxy)spiro[chromeno[2,3-b]pyridine-5,4′-[1,3]oxazol]-2′-amine] | – | – | IC50 (BACE1 [1]; [3]): < 0.1 µM; IC50 (BACE1 [2]; [4]): 1 to 5 µM |
| CC(C)(C)COc1ccc2c(c1)[C@]1(COC(N)=N1)c1cc(-c3cc(Cl)ccc3F)cnc1O2 [Example 91, (5R)-3-(5-chloro-2-fluorophenyl)-7-(2,2-dimethylpropoxy)spiro[chromeno[2,3-b]pyridine-5,4′-[1,3]oxazol]-2′-amine] | – | – | IC50 (BACE1 [1]; [3]): < 0.1 µM; IC50 (BACE1 [2]; [4]): 0.1 to 1 µM |
| CC(C)(C)COc1ccc2c(c1)[C@@]1(COC(N)=N1)c1cc(-c3cccnc3)cnc1O2 [Example 93, (5S)-7-(2,2-dimethylpropoxy)-3-(3-pyridinyl)spiro[chromeno[2,3-b]pyridine-5,4′-[1,3]oxazol]-2′-amine] | – | – | IC50 (BACE1 [1]; [3]): 0.1 to 1 µM; IC50 (BACE1 [2]; [4]): 0.1 to 1 µM |
| CC(C)(C)CCOc1nccc2c1C1(COC(N)=N1)c1cc(-c3cncnc3)ccc1O2 (stereo not drawn) [Example 109, 1-(3,3-Dimethylbutoxy)-8-(pyrimidin-5-yl)-5′H-spiro[chromeno[3,2-c]pyridine-10,4′-oxazol]-2′-amine] | 0.1 to 1 µM | 0.1 to 1 µM | – |
| CC(C)(C)C#Cc1ccc2c(c1)[C@]1(COC(N)=N1)c1cc(Oc3ccccn3)ccc1O2 [Example 112, (4R)-2′-(3,3-dimethyl-1-butyn-1-yl)-7′-(2-pyridinyloxy)spiro[1,3-oxazole-4,9′-xanthen]-2-amine] | < 0.1 µM | 0.1 to 1 µM | – |
| NC1=NC2(CO1)c1cc(-c3cccnc3)ccc1Oc1ncc(-c3cccnc3)cc12 (stereo not drawn) [Example 113, 3,7-di-3-pyridinylspiro[chromeno[2,3-b]pyridine-5,4′-[1,3]oxazol]-2′-amine] | < 0.1 µM | < 0.1 µM | – |
| CC(C)(O)C#Cc1ccc2c(c1)C1(COC(N)=N1)c1cc(C#CC(C)(C)O)cnc1O2 (stereo not drawn) [Example 114, 4,4′-(−2′-aminospiro[chromeno[2,3-b]pyridine-5,4′-[1,3]oxazole]-3,7-diyl)bis(2-methyl-3-butyn-2-ol)] | 0.1 to 1 µM | 0.1 to 1 µM | – |
| COC(C)(C)C#Cc1ccc2c(c1)C1(COC(N)=N1)c1cc(C#CC(C)(C)OC)ccc1O2 [Example 119, 2′,7′-bis(3-methoxy-3-methylbut-1-ynyl)-5H-spiro[oxazole-4,9′-xanthen]-2-amine] | 0.1 to 1 µM | 0.1 to 1 µM | – |
| NC1=NC2(CO1)c1cc(-c3cccnc3)ccc1Oc1ccc(-c3cccnc3)cc12 [Example 123, 2′,7′-di(pyridin-3-yl)-5H-spiro[oxazole-4,9′-xanthen]-2-amine] | < 0.1 µM | < 0.1 µM | – |
| NC1=N[C@]2(CO1)c1cc(-c3cccnc3)ccc1Oc1ccc(-c3cncnc3)cc12 [Example 124, (R)-2′-(pyridin-3-yl)-7′-(pyrimidin-5-yl)-5H-spiro[oxazole-4,9′-xanthen]-2-amine] | < 0.1 µM | < 0.1 µM | – |
| COc1ccc2c(c1)[C@@]1(COC(N)=N1)c1cc(C(=O)N3CCCC3)ccc1O2 [Example 127, (R)-(2-amino-2′-methoxy-5H-spiro[oxazole-4,9′-xanthene]-7′-yl)(pyrrolidin-1-yl)methanone] | > 5 µM | 1 to 5 µM | – |
| NC1=N[C@@]2(CO1)c1cc(-c3cccnc3F)ccc1Oc1cnc(C3=CCOCC3)cc12 [Example 294, (S)-3-(3,6-dihydro-2H-pyran-4-yl)-7-(2-fluoropyridin-3-yl)-5′H-spiro[chromeno[2,3-c]pyridine-5,4′-oxazol]-2′-amine] | – | – | IC50 (BACE1 [1]; BACE1 FRET assay, Table IV, class symbols): < 0.1 µM; IC50 (BACE1 [2]; HEK cell assay, Table IV, class symbols): < 0.1 µM |
| NC1=N[C@@]2(CO1)c1cc(-c3cccnc3F)ccc1Oc1cnc(C3CCOCC3)cc12 [Example 495, (5S)-7-(2-fluoro-3-pyridinyl)-3-(tetrahydro-2H-pyran-4-yl)spiro[chromeno[2,3-c]pyridine-5,4′-[1,3]oxazol]-2′-amine] | – | – | IC50 (BACE1 [1]; BACE1 FRET assay (uM)): < 0.1 µM; IC50 (BACE1 [2]; HEK cell assay (uM), HEK cells): < 0.1 µM |
| NC1=N[C@@]2(CO1)c1cc(-c3cccnc3F)ccc1Oc1cnc(-c3ccncc3)cc12 [Example 515, (5S)-7-(2-fluoro-3-pyridinyl)-3-(4-pyridinyl)spiro[chromeno[2,3-c]pyridine-5,4′-[1,3]oxazol]-2′-amine] | – | – | IC50 (BACE1 [1]; BACE1 FRET assay (uM)): < 0.1 µM; IC50 (BACE1 [2]; HEK cell assay (uM), HEK cells): < 0.1 µM |
| CC(C)(C)COc1ccc2c(c1)[C@]1(COC(N)=N1)c1cc(C#CC3CC3)cnc1O2 [compound 45] | – | – | IC50 (BACE1 [1]; [3]): < 0.1 µM; IC50 (BACE1 [2]; [4]): 0.1 to 1 µM |
| CC(C)(C)CC(=O)c1ccc2c(c1)[C@]1(COC(N)=N1)c1cc(-c3cncnc3)ccc1O2 [compound 48, 1-((4S)-2-amino-7′-(5-pyrimidinyl)spiro[1,3-oxazole-4,9′-xanthen]-2′-yl)-3,3-dimethyl-1-butanone] | – | – | IC50 (BACE1 [1]; [3]): 0.1 to 1 µM and < 0.1 µM; IC50 (BACE1 [2]; [4]): 0.1 to 1 µM and < 0.1 µM |
| CC(C)(O)C#Cc1ccc2c(c1)C1(COC(N)=N1)c1cc(C#CC(C)(C)O)ccc1O2 [compound 118] | 1 to 5 µM | 1 to 5 µM | – |
| NC1=NC2(CO1)c1cc(-c3cncnc3)ccc1Oc1ccc(-c3cncnc3)cc12 [compound 137] | < 0.1 µM | 0.1 to 1 µM | – |
| NC1=N[C@]2(CO1)c1cc(C#CC3CCCCC3)ccc1Oc1ccc(-c3cncnc3)cc12 [compound 138] | < 0.1 µM | 0.1 to 1 µM | – |
| NC1=N[C@]2(CO1)c1cc(C(=O)CC3CCCCC3)ccc1Oc1ccc(-c3cncnc3)cc12 [compound 141] | < 0.1 µM | 0.1 to 1 µM | – |
| NC1=N[C@]2(CO1)c1cc(-c3cccnc3)ccc1Oc1ncc(-c3cccnc3)cc12 [compound 157] | < 0.1 µM | < 0.1 µM | – |
| CC(C)(C)C#Cc1ccc2c(c1)[C@@]1(COC(N)=N1)c1cc(-c3cccnc3)cnc1O2 [compound 160] | < 0.1 µM | < 0.1 µM | – |
| CC(C)(C)CCc1ccc2c(c1)[C@@]1(COC(N)=N1)c1cc(-c3cccnc3)cnc1O2 [compound 161] | < 0.1 µM | < 0.1 µM | – |

Continued, in another order:

| IC50 (BACE1 [1]; [5]) | IC50 (BACE1 [2]; [6]) | SMILES | other results |
| --- | --- | --- | --- |
| < 0.1 µM | < 0.1 µM | COC(C)(C)CCc1ccc2c(c1)[C@]1(COC(N)=N1)c1cc(-c3cncnc3)ccc1O2 [Example 122, (R)-2′-(3-methoxy-3-methylbutyl)-7′-(pyrimidin-5-yl)-5H-spiro[oxazole-4,9′-xanthen]-2-amine] | – |
| < 0.1 µM | 0.1 to 1 µM | CC(C)(C)COc1ccc2c(c1)[C@@]1(COC(N)=N1)c1cc(-c3ccc(C#N)cc3)ccc1O2 [Example 128, (R)-4-(2-amino-2′-(neopentyloxy)-5H-spiro[oxazole-4,9′-xanthene]-7′-yl)benzonitrile] | – |
| 0.1 to 1 µM | > 5 µM | Cc1n[nH]cc1-c1ccc2c(c1)[C@@]1(COC(N)=N1)c1cc(OCC(C)(C)C)ccc1O2 [Example 129, (S)-2′-(3-methyl-1H-pyrazol-4-yl)-7′-(neopentyloxy)-5H-spiro[oxazole-4,9′-xanthen]-2-amine 2,2,2-trifluoroacetate] | – |
| < 0.1 µM | < 0.1 µM | CC(C)(C)COc1ccc2c(c1)[C@]1(COC(N)=N1)c1cc(-c3cnccn3)ccc1O2 [Example 131, (S)-2′-(neopentyloxy)-7′-(pyrazin-2-yl)-5H-spiro[oxazole-4,9′-xanthen]-2-amine] | – |
| 1 to 5 µM | > 5 µM | NC1=N[C@]2(CO1)c1cc(OCC3CCOC3)ccc1Oc1ccc(-c3cncnc3)cc12 (stereo partly drawn) [Example 132, (S)-2′-(pyrimidin-5-yl)-7′-((tetrahydrofuran-3-yl)methoxy)-5H-spiro[oxazole-4,9′-xanthen]-2-amine] | – |
| < 0.1 µM | < 0.1 µM | CC(C)(C#N)COc1ccc2c(c1)[C@]1(COC(N)=N1)c1cc(-c3cccnc3)ccc1O2 [Example 134, (S)-3-(2-amino-2′-(pyridin-3-yl)-5H-spiro[oxazole-4,9′-xanthene]-7′-yloxy)-2,2-dimethylpropanenitrile] | – |
| < 0.1 µM | < 0.1 µM | CC(C)(O)COc1ccc2c(c1)[C@]1(COC(N)=N1)c1cc(-c3cccnc3)ccc1O2 [Example 135, (S)-1-(2-amino-2′-(pyridin-3-yl)-5H-spiro[oxazole-4,9′-xanthene]-7′-yloxy)-2-methylpropan-2-ol] | – |
| < 0.1 µM | < 0.1 µM | C=C(C)COc1ccc2c(c1)[C@]1(COC(N)=N1)c1cc(-c3cncnc3)ccc1O2 [compound 139] | – |
| < 0.1 µM | 0.1 to 1 µM | CC(C)(C)COc1ccc2c(c1)[C@]1(COC(N)=N1)c1cc(-c3ccnnc3)ccc1O2 [compound 145] | – |
| < 0.1 µM | 0.1 to 1 µM | C=C(C)COc1ccc2c(c1)[C@]1(COC(N)=N1)c1cc(-c3cccnc3)ccc1O2 [compound 146] | – |
| < 0.1 µM | < 0.1 µM | CC(C)(F)COc1ccc2c(c1)[C@]1(COC(N)=N1)c1cc(-c3cccnc3)ccc1O2 [compound 148] | – |
| < 0.1 µM | < 0.1 µM | COC(C)(C)COc1ccc2c(c1)[C@]1(COC(N)=N1)c1cc(-c3cccnc3)ccc1O2 [compound 149] | – |
| < 0.1 µM | < 0.1 µM | CC(C)(C)OCCOc1ccc2c(c1)[C@]1(COC(N)=N1)c1cc(-c3cncnc3)ccc1O2 [compound 158] | – |
| < 0.1 µM | 0.1 to 1 µM | CC(C)(C)OCCOc1ccc2c(c1)[C@]1(COC(N)=N1)c1cc(-c3cccnc3)ccc1O2 [compound 159] | – |
| 0.1 to 1 µM | 0.1 to 1 µM | NC1=N[C@]2(CO1)c1cc(OCC(C(F)(F)F)C(F)(F)F)ccc1Oc1ccc(-c3cncnc3)cc12 [compound 163] | – |
